Positions of bridges follow the written chain, without caps; N, C: chain ends. No end group written: not given here.
Experiments:
FGFR2 = FGFR2 (Homo sapiens, UniProt P21802); test: Affinity to FGFR2 by isothermal titration calorimetry (ITC); assay type: binding; settings: for Kd: read-out: dissociation constant Kd with FGFR2
From the text: 1. Detection of the Affinity Between the Repair Peptide R1 and FGFR2 by Using the ITC Method
(The K denoted the affinity constant, and the Kd denoted the dissociation constant. The larger the K was and the smaller the Kd was, the stronger the affinity was).

[1] = system: mouse fibroblasts Balb/c 3T3; test: Proliferation-promoting effect on fibroblasts Balb/c 3T3, CCK-8 method; assay type: cell-based; settings: 24 hours treatment
Protocol: 2. Detection of the Proliferation-Promoting Effects of Repair Peptides R1, R2, R3 and R4, and the bFGF Respectively on Fibroblasts Balb/c 3T3 by Using the CCK-8 Method
(§1) The Ballb/c 3t3 cells were plated in 96-well plates at 4000 cells per well. After the cells were adhered and then starved for 24 hours, the cells were treated for 24 hours with the repair peptides R1, R2, R3 or R4, or the bFGF respectively at concentrations increased by 5 times. After that, the cells were treated with a CCK-8 reagent, and the optical density (OD) value of each well was detected by an enzyme-labeled instrument.

[2] = system: human umbilical vein endothelial cells (HUVEC); test: Proliferation-promoting effect on HUVEC, CCK-8 method; assay type: cell-based; settings: 24 hours treatment
Protocol: 3. Detection of the Proliferation-Promoting Effects of Repair Peptides R1, R2, R3 and R4, and the bFGF Respectively on Human Umbilical Vein Endothelial Cells (HUVEC) by Using the CCK-8 Method
as §1, with “HUVEC” for “Ballb/c 3t3”, “with” for “with the”, “OD” for “optical density (OD)”

[3] = system: chick embryo chorioallantoic membrane; test: Angiogenesis in chick embryo chorioallantoic membrane, R1 at increasing concentrations; assay type: in vivo; settings: 10 μL at concentrations increased by 25 times, three days culture
Protocol: 4. Angiogenesis in the Chick Embryo Chorioallantoic Membrane Promoted by the Repair Peptide R1
A fertilized egg cultured for 5 days was placed with the bigger head of the egg up. The eggshell was removed, and a silica gel ring was placed in the middle of the exposed chick embryo chorioallantoic membrane. 10 μL of the repair peptide R1 at concentrations increased by 25 times was respectively added drop-wise into the silica gel ring, and the opening was sealed with clean filter paper. A blank control group treated with PBS solution was set up. Further cultured for three days, then the chick embryo chorioallantoic membrane was peeled off, observed under a stereoscope and photographed, and the image was analyzed by using the software, ImageJ plus.

[4] = system: chick embryo chorioallantoic membrane; test: Angiogenesis in chick embryo chorioallantoic membrane, R1-R4 at the same concentration; assay type: in vivo; settings: 100 μL at 100 ng/mL, three days culture
Protocol: 5. Detection of the Angiogenesis in the Chick Embryo Chorioallantoic Membrane Promoted by Repair Peptides R1, R2, R3 and R4
A fertilized egg cultured for 5 days was placed with the bigger head of the egg up, then the eggshell was removed. 100 μL of repair peptides R1, R2, R3 and R4 at concentration of 100 ng/mL was respectively added drop-wise into the exposed chick embryo chorioallantoic membrane, and the opening was sealed with clean filter paper. A blank control group treated with PBS solution was set up. Further cultured for three days, then the chick embryo chorioallantoic membrane was peeled off, observed under a stereoscope and photographed, and the image was analyzed by using the software, ImageJ plus.

skin wound = test: Skin wound healing after back incision; assay type: in vivo, Balb/c mice; settings: 10 μL drop-wise into 1-cm sutured incisions once a day
Protocol: 6. Detection of the Wound Healing in […] Skin Promoted by Repair Peptides R1, R2, R3 and R4
Balb/c mice were anesthetized by intra-peritoneal injection with 1% pentobarbital sodium (100 mg/kg), and the back was depilated and disinfected using conventional sterilization methods with 1% iodophor and 75% alcohol. Both sides of the back were cut symmetrically leaving 1-cm incisions. The incisions were sutured with two needles in the sterilized surgery. Then 10 μL of repair peptides R1, R2, R3 and R4 are respectively added drop-wise into the wounds. The wounds were open with no cotton yarn covered. A blank control group treated with PBS solution was set up.

[5] = lower concentration groups (≤0.16 μM)

Sequence of FGFR2 (P21802 22-821, species assumed): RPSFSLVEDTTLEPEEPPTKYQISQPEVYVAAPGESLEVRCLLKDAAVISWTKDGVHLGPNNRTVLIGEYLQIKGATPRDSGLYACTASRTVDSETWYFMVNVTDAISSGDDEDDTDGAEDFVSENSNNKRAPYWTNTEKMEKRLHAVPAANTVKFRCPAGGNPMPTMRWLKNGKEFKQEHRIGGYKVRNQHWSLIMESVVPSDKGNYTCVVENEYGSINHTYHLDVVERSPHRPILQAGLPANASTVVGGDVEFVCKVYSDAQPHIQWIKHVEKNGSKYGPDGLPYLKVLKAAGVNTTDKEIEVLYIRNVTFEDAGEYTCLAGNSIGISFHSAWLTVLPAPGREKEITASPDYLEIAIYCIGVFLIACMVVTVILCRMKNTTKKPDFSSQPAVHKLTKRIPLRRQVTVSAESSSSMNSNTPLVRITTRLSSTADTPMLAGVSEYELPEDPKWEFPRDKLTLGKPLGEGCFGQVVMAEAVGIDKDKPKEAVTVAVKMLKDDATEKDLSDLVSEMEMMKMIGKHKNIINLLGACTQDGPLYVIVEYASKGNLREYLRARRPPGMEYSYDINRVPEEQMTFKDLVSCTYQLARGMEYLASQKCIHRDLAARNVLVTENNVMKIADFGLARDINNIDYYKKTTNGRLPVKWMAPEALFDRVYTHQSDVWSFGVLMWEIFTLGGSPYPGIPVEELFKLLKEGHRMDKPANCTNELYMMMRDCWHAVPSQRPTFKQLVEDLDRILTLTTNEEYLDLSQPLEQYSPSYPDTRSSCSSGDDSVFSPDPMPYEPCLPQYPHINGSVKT

affinity constant K with FGFR2 (FGFR2) [M⁻¹]	affinity to FGFR2 relative to that of bFGF (FGFR2; R1-FGFR2 versus bFGF-FGFR2)	Kd (FGFR2) [µM]	Substance	proliferation-promoting activity on Balb/c 3T3 (OD, CCK-8) ([1]; higher concentration groups)	proliferation-promoting activity on Balb/c 3T3 (OD, CCK-8) ([1]; lower concentration groups)	proliferation-promoting activity on HUVEC (OD, CCK-8) ([2]; higher concentration groups)	proliferation-promoting activity on HUVEC (OD, CCK-8) [2, 5]	capillaries in the chick embryo chorioallantoic membrane [3]	capillaries in the chick embryo chorioallantoic membrane [4]	skin wound healing (skin wound)
7.35e+08 ± 2.1e+08	about 4,500 times	~0.00137	GPANVET [R1, GPANVET]	still had a proliferation-promoting activity	comparable proliferation-promoting activity	still had a proliferation-promoting activity	comparable proliferation-promoting activity	significantly increased with the increasing dose	significantly increased	the healing was sped up
			KVKVGPANVKVKV (R2)	still had a proliferation-promoting activity	comparable proliferation-promoting activity	still had a proliferation-promoting activity	comparable proliferation-promoting activity		significantly increased	the healing was sped up
162000 ± 25000		~6.17	bFGF: recombinant basic Fibroblast Growth Factor (155 amino acids), clinically applied to wounds and burns	cell proliferation was inhibited	comparable proliferation-promoting activity	cell proliferation was inhibited	comparable proliferation-promoting activity			
			CGPANVETC (disulfide 1-9 (inferred)) [R4]	still had a proliferation-promoting activity	comparable proliferation-promoting activity	still had a proliferation-promoting activity	comparable proliferation-promoting activity		significantly increased	the healing was sped up
			GPANVEKEKEK (R3)	still had a proliferation-promoting activity	comparable proliferation-promoting activity	still had a proliferation-promoting activity	comparable proliferation-promoting activity		significantly increased	the healing was sped up
